From US12528817B2, “Method of inhibiting kinase by mesylate salts of triazolopyrazine derivatives” (ABION Inc., priority 2022, dated 2026)
Values joined by “and” are separate entries in the source; they are usually repeats but may differ in a detail not shown here. Identical values can stand only once. “Also recorded” adds a separate entry of the source.

Columns and labels:
[1] = Physical stability under accelerated aging conditions (AAC), HT-XRPD; settings: for Form after AAC: 40° C./75% RH, 2 days (48 hours), HT-XRPD; for Physical stability after exposure to AAC: 40° C./75% RH for 2 days
Method: Upon completion of the aging time, the solids were separated from the liquid phases, dried under vacuum at 50° C. and analyzed by HT-XRPD. […] Subsequently, all the solids were exposed to accelerated aging conditions (AAC) at 40° C./75% RH for 48 hours and re-measured by HT-XRPD to test their physical stability.
(§1) HT-XRPD patterns were obtained using the Crystallics T2 high-throughput XRPD set-up. The plates were mounted on a Bruker General Area Detector Diffraction System (GADDS) equipped with a VANTEC-500 gas area detector corrected for intensity and geometric variations. The calibration of the measurement accuracy (peaks position) was performed using NIST SRM1976 standard (Corundum).
(§2) Data collection was carried out at room temperature using monochromatic Cu Kα radiation in the 2θ region between 1.5° and 41.5°, which is the most distinctive part of the XRPD pattern. The diffraction pattern of each well was collected in two 20 ranges (1.5°≤2θ≤21.5° for the first frame, and 19.5°≤2θ≤41.5° for the second) with an exposure time of 90 s for each frame. No background subtraction or curve smoothing was applied to the XRPD patterns. The carrier material used during HT-XRPD analysis was transparent to X-rays and contributed only slightly to the background.

[2] = Long-term stability study, water content by TGA/TGMS; assay type: physicochemical
Method: Mass loss due to solvent or water loss from the crystals was determined by TGA. […] The TGA/DSC 3+ was calibrated for temperature with samples of indium and aluminum. Samples (circa 2 mg) were weighed into 100 μL aluminum crucibles and sealed. The seals were pin-holed, and the crucibles heated in the TGA from 25 to 300° C. at a heating rate of 10° C./min. Dry N2 gas was used for purging.
The gases coming from the TGA samples were analyzed by a mass spectrometer Omnistar GSD 301 T2 (Pfeiffer Vacuum GmbH, Germany). The latter is a quadrupole mass spectrometer, which analyzes masses in the […] of 0-200 amu.

[3] = DVS analysis (hygroscopicity, moisture sorption); assay type: physicochemical; settings: for Change in mass at 80% RH / Change of mass in the range 40→95% RH / Water vapor uptake at 95% RH / Change in mass in the range 0→40% RH: 25° C.; for Solid form after DVS analysis: XRPD at end of DVS; for Hygroscopicity classification (European Pharmacopeia): based on change in mass at 80% RH; for Change of mass in the range 40→95% RH / Water vapor uptake at 95% RH: first sorption half-cycle; for Change in mass in the range 0→40% RH: last sorption half-cycle; for Reversibility of water uptake: sorption-desorption-sorption 40-95-0-40% RH
Method: Differences in hygroscopicity (moisture uptake) of the various forms of a solid material provided a measure of their relative stability at increasing relative humidity. Moisture sorption isotherms of small samples were obtained using a DVS-1 system from Surface Measurement Systems (London, UK); this instrument is suitable for use with as little as a few milligrams of sample, with an accuracy of 0.1 μg. The relative humidity was varied during sorption-desorption-sorption (40-95-0-40% RH) at a constant temperature of 25° C., typically with a hold time of 60 minutes per step (10% relative humidity step). At the end of the DVS experiment the sample was measured by XRPD.
The hygroscopicity was classified according to the European Pharmacopoeia Hygroscopicity classification.

[4] = Long-term physical stability study, solid form by HT-XRPD; assay type: physicochemical
Method: as §1, §2

[5] = Long-term chemical stability study, API chemical purity by HPLC/LCMS; assay type: physicochemical
Method: Assay and purity assessment of the novel crystalline salts • Method name: S19061_01.MV • Sample: • Concentration: 0.3 mg/ml • Diluent: Acetonitrile/water (50/50)

[6] = Thermal stability study in solution (LCMS); assay type: physicochemical; settings: for Area %: approx. 0.3 mg/mL
Method: A thermal stability study was performed on ABN-401 to investigate the chemical stability of the starting material in solution when exposed to elevated temperatures. Solutions of ABN-401 were prepared in acetone, 1,2-dimethoxyethane, and acetonitrile with a concentration of approximately 0.3 mg/mL. Solutions were left at RT for 1 hour and successively, two aliquots of each solution were taken and heated at 50° C. and 80° C. for one hour. All these solutions were analyzed by LCMS. Additionally, the samples kept at RT were remeasured by LCMS after 24 hours to check the chemical degradation over time.
Starting material characterization and purity assessment of the novel crystalline forms of the free base: • Method name: S19061_03.M • Sample: • Concentration: 0.3 mg/ml • Diluent: Acetonitrile

Row | Compound | Form after AAC [1] | Mass loss attributed to water (TGA) after storage ([2]; 25° C./60% RH, 1 month) [%] | Mass loss attributed to water (TGA) after storage ([2]; 25° C./60% RH, 24 months) [%] | Mass loss attributed to water (TGA) after storage ([2]; 40° C./75% RH, 1 month) [%] | Mass loss attributed to water (TGA) after storage ([2]; 40° C./75% RH, 3 months) [%] | Mass loss attributed to water (TGA) after storage ([2]; 40° C./75% RH, 15 months) [%] | Mass loss attributed to water (TGA) after storage ([2]; 40° C./75% RH, 24 months) [%] | Change in mass at 80% RH [3] | Solid form after DVS analysis [3] | Hygroscopicity classification (European Pharmacopeia) [3] | Change of mass in the range 40→95% RH [3] [%] | Water vapor uptake at 95% RH [3] [%] | Change in mass in the range 0→40% RH [3] [%] | Reversibility of water uptake [3] | Solid form (HT-XRPD) after storage ([4]; 25° C./60% RH, 1 month) | Solid form (HT-XRPD) after storage ([4]; 25° C./60% RH, 3 months) | Solid form (HT-XRPD) after storage ([4]; 25° C./60% RH, 15 months) | API chemical purity after storage ([5]; 25° C./60% RH, 24 months) | API chemical purity after storage ([5]; 40° C./75% RH, 24 months) | Physical stability after exposure to AAC [1] | also measured
1 | CC1(C)[C@@H]2CC[C@@]1(CS(=O)(=O)O)C(=O)C2.CN1CCN(Cc2ccc(-c3cnc(N4CCOC(Cn5nnc6ncc(-c7cnn(C)c7)nc65)C4)nc3)cc2)CC1 (stereo in doubt) [Camp2] | Camp2 | 1.6 | 1.9 | 1.8 | 7.1 | 6.9 | 6.7 | 1.4% | Camp4 | slightly hygroscopic | 14.1 | 15.6 | 6.6 | irreversible | Camp2 | Camp2 | Camp2 | 100 % (area %) | 88.6 % (area %) | – | Solid form (HT-XRPD) after storage ([4]; 25° C./60% RH, 24 months): no solid form conversion; also recorded: Camp2; Solid form (HT-XRPD) after storage ([4]; 40° C./75% RH, 1 month): Camp2; Solid form (HT-XRPD) after storage ([4]; 40° C./75% RH, 3 months): solid form conversion of Camp2 to Camp4; Solid form (HT-XRPD) after storage ([4]; 40° C./75% RH, 15 months): Camp4; Solid form (HT-XRPD) after storage ([4]; 40° C./75% RH, 24 months): a mixture of a camsylate salt and Form E of the free base; also recorded: Camp3+E; API chemical purity after storage ([5]; 25° C./60% RH, 1 month): 99.8 % (area %); API chemical purity after storage ([5]; 25° C./60% RH, 15 months): 99.5 % (area %) and 97.3 % (area %) and 100 % (area %); API chemical purity after storage ([5]; 40° C./75% RH, 1 month): 99.8 % (area %); API chemical purity after storage ([5]; 40° C./75% RH, 15 months): 93.7 % (area %) and 88.6 % (area %)
2 | CN1CCN(Cc2ccc(-c3cnc(N4CCOC(Cn5nnc6ncc(-c7cnn(C)c7)nc65)C4)nc3)cc2)CC1 (centres unmarked) [ABN-401] | – | 3.7 | 5.3 | 4.0 | 4.4 | 3.7 | 5.2 | – | – | – | – | – | – | – | – | – | – | 87.2 % (area %) | 90.7 % (area %) | – | Mass loss attributed to water (TGA) after storage ([2]; 25° C./60% RH, 3 months): 4.1%; Mass loss attributed to water (TGA) after storage ([2]; 25° C./60% RH, 15 months): 3.3%; Area % ([6]; 1,2-dimethoxyethane, 1 h/50° C.): 98.6%; Area % ([6]; 1,2-dimethoxyethane, 1 h/80° C.): 97.7%; Area % ([6]; 1,2-dimethoxyethane, 1 h/RT): 99.0%; Area % ([6]; 1,2-dimethoxyethane, 24 h/RT): 98.8%; Area % ([6]; ACN, 1 h/50° C.): 99.0%; Area % ([6]; ACN, 1 h/80° C.): 98.7%; Area % ([6]; ACN, 1 h/RT): 99.0%; Area % ([6]; ACN, 24 h/RT): 98.1%; Area % ([6]; Acetone, 1 h/50° C.): 99.0%; Area % ([6]; Acetone, 1 h/80° C.): 99.0%; Area % ([6]; Acetone, 1 h/RT): 98.8%; Area % ([6]; Acetone, 24 h/RT): 98.5%; Chemical degradation in solution ([6]; samples kept at 50° C. and 80° C. for one hour, acetone, 1,2-dimethoxyethane, acetonitrile): No significant chemical degradation
3 | CC1(C)[C@@H]2CC[C@@]1(CS(=O)(=O)O)C(=O)C2.CN1CCN(Cc2ccc(-c3cnc(N4CCOC(Cn5nnc6ncc(-c7cnn(C)c7)nc65)C4)nc3)cc2)CC1 (centres unmarked) [Camp1] | Camp1 | – | – | – | – | – | – | – | – | – | – | – | – | – | – | – | – | – | – | physically stable | –
4 | CN1CCN(Cc2ccc(-c3cnc(N4CCOC(Cn5nnc6ncc(-c7cnn(C)c7)nc65)C4)nc3)cc2)CC1.CS(=O)(=O)O (centres unmarked) [Mes1] | Mes1 | – | – | – | – | – | – | – | – | – | – | – | – | – | – | – | – | – | – | physically stable | –
5 | CN1CCN(Cc2ccc(-c3cnc(N4CCOC(Cn5nnc6ncc(-c7cnn(C)c7)nc65)C4)nc3)cc2)CC1.CS(=O)(=O)O.CS(=O)(=O)O (centres unmarked) [Mes2] | Mes2 | 8.0 | – | 10.8 | 11.2 | 9.6 | ~12.0 | approximately 12.2% | No change in the solid form | moderately hygroscopic | 24.8 | 29.6 | 4.6 | reversible | Mes2 | no significant differences in the powder patterns and Mes2 | additional diffraction peaks were detected at 15.1 and 16.5° 2θ; also recorded: Mes2+peaks | 99.6 % (area %) | 100 % (area %) | physically stable | Mass loss attributed to water (TGA) after storage ([2]; 25° C./60% RH, 3 months): 7.7%; Mass loss attributed to water (TGA) after storage ([2]; 25° C./60% RH, 15 months): 6.5%; Solid form (HT-XRPD) after storage ([4]; 25° C./60% RH, 24 months): Mes6; Solid form (HT-XRPD) after storage ([4]; 40° C./75% RH, 1 month): Mes2; Solid form (HT-XRPD) after storage ([4]; 40° C./75% RH, 3 months): showed these additional peaks; also recorded: Mes2+peaks; Solid form (HT-XRPD) after storage ([4]; 40° C./75% RH, 15 months): Mes4 and Mes4+peaks; Solid form (HT-XRPD) after storage ([4]; 40° C./75% RH, 24 months): Mes6; API chemical purity after storage ([5]; 25° C./60% RH, 1 month): 100 % (area %) and 99.7 % (area %); API chemical purity after storage ([5]; 25° C./60% RH, 3 months): 99.6 % (area %); API chemical purity after storage ([5]; 25° C./60% RH, 15 months): 100 % (area %); API chemical purity after storage ([5]; 40° C./75% RH, 1 month): 99.7 % (area %) and 97.2 % (area %); API chemical purity after storage ([5]; 40° C./75% RH, 3 months): 99.5 % (area %); API chemical purity after storage ([5]; 40° C./75% RH, 15 months): 100 % (area %)
6 | CN1CCN(Cc2ccc(-c3cnc(N4CCOC(Cn5nnc6ncc(-c7cnn(C)c7)nc65)C4)nc3)cc2)CC1.CS(=O)(=O)O.CS(=O)(=O)O.CS(=O)(=O)O (centres unmarked) [Mes3] | Mes3 (deliquescent) | – | – | – | – | – | – | – | – | – | – | – | – | – | – | – | – | – | – | became deliquescent | –
